Values joined by “and” are separate entries in the source; they are usually repeats but may differ in a detail not shown here. Identical values can stand only once. Like-named read-outs stand apart in the source and are kept apart here.
Experiments:
CR-N330K parasites = assay: Growth inhibition assay (72 h, LDH activity); format: cell-based, Plasmodium falciparum; settings: for inhibition at 40 µM / inhibition at 0.00203221 µM / inhibition at 0.00609663 µM / inhibition at 0.0182899 µM / inhibition at 0.0548697 µM / inhibition at 0.164609 µM / inhibition at 0.493827 µM / inhibition at 1.48148 µM / inhibition at 4.44444 µM / inhibition at 13.3333 µM / EC50: Plasmodium falciparum; for inhibition at 40 µM / inhibition at 0.00203221 µM / inhibition at 0.00609663 µM / inhibition at 0.0182899 µM / inhibition at 0.0548697 µM / inhibition at 0.164609 µM / inhibition at 0.493827 µM / inhibition at 1.48148 µM / inhibition at 4.44444 µM / inhibition at 13.3333 µM: read-out: Growth inhibition assay, NORMALISED; for inhibition at 0.00203221 µM: conc 2.03221 nM; for inhibition at 0.00609663 µM: conc 6.09663 nM; for inhibition at 0.0182899 µM: conc 18.2899 nM; for inhibition at 0.0548697 µM: conc 54.8697 nM; for inhibition at 0.164609 µM: conc 164.609 nM; for inhibition at 0.493827 µM: conc 493.827 nM; for inhibition at 1.48148 µM: conc 1481.48 nM; for inhibition at 4.44444 µM: conc 4444.44 nM
Protocol: (§1) Parasite growth assays with inhibitory compounds were performed as per[11] and are fully described in the Supplementary Information.
(§2) Molecular biology and transfection of P. falciparum: CRISPR method.
(§3) The full 5’ homology region of pfstart1 (either WT, N309K or N330K) was amplified from pPfSTART1-HA-2A-Neo-glmS with the same 5’ BglII primer and a new 3’ primer that replaced with PstI with SpeI and introduced a stop codon. The PCR product was then digested with BglII and SpeI and inserted into similarly digested p1.2 parasite vector2. The p1.2 vector had previously been inserted with a homology region amplified from the 3’ end of the pfstart1 gene (3’HB) to form a second homology block for double recombination. The primers used to amplify 3’HB are listed primers listed in […]
(§4) 60 μg of p1.2-PfSTART1(WT/N309K/N330K) plasmid was linearised with KasI, precipitated in 3 M sodium acetate and ethanol (70% final concentration) overnight at -20°C. The DNA pellet was washed in cold 70% ethanol and resuspended in cytomix 3.
(§5) 50 μ M of crRNA ( Table S 2) and 50 μM of tracRNA (Integrated DNA Technologies) were allowed to form a duplex (5 min at 95°C), and Cas9 enzyme (Integrated DNA Technologies) was added, and incubated for 20 min at room temperature 4. This crRNA -tracRNA -Cas9 mix was added to each DNA preparation and transfected to 3D7 ring parasites using the Bio -Rad Gene Pulser at 310 V and 950 μF.
(§6) Parasites containing the transfected DNA were selected using 2.5 nM WR99210 (Jacobus). Parasites lines were cloned using limiting dilution. Correct integration was tested by PCR (using primer START_5’UTR.F and START_Int.R1 , Table S 2), and sequencing was done using the primers START_3F and START_Int.R2 (Table S 2).
(§7) Growth inhibition assays. Synchronised ring-stage parasites (0.3-0.6% parasitemia, 2% haematocrit) were grown for 72 h in a serial-dilution of the compound under […]
(§8) and compound 4. Note that M-833 was first purchased from MolPort (MolPort -002-267-916) then made in-house at WEHI: the differences observed in EC50s across experiments are attributed to the different batches of M -833. For some experiments, 0, 0.25 or 2.5 mM of glucosamine (GlcN) was also added. Experiments were set up in technical duplicates or triplicates. Following a freeze -thaw cycle, lactate dehydrogenase (LDH) activity was assessed as an indicator of parasite growt h 5. 30 μL of parasite culture was incubated for 30 min in the dark with 75 μL Malstat mixture (0.1 M Tris pH 9.0, 20 g/L lactic acid, pH 7.5, 0.2% Triton-X100, 0.5 g/L acetylpyridine adenine dinucleotide (APAD, Sigma), 200 μg/mL nitroblue tetrazolium (NBT; Sigma), 1 μg/mL phenozine ethosulfate (PES; Sigma)). Absorbance was then measured at 650 nm, transformed using the formula below, plotted against the logarithm of the concentrations, and a non-linear regression (log(inhibitor) vs. response, variable slope) was calculated using GraphPad Prism to assess the half-inhibitory […]
(§9) Growth inhibition % = (1 − average(sample)− average(uRBC)) ∗ 100 […]
(§10) The DMSO samples were also used to assess growth of parasite in the presence of 0.25 and 2.5 mM GlcN (normalised by DMSO in 0 mM GlcN).
(§11) Egress, invasion & recovery assay. To measure egress, invasion and follow up recovery in the presence of different compounds, we adapted the method developed in6, using Hyp1-Nluc parasites7. These parasites episomally express the exported PEXEL protein Hyp1 (PF3D7_0113300) tagged with a NanoLuc luciferase (NLuc) and were selected with 2.5 nM WR99210 (Jacobus). Highly synchronised schizonts were obtained using ML10 (LifeArc) and sorbitol synchronisation, and Percoll-purified (the culture was gently layered over 67% Percoll (Cytiva) in RPMI, and centrifuged for 15 min at 1500 g and the schizont layer was collected and washed). In a 96-well plate, […]

CR-N309K parasites = assay: Growth inhibition assay (72 h, LDH activity); format: cell-based, Plasmodium falciparum
Protocol: as §1, §2, §3, §4, §5, §6, §7, §8, §9, §10, §11

[1] = 0.25 mM GlcN, M833 dilution point 1 of 10 (starting concentration 40 uM)
[2] = 2.5 mM GlcN, M833 dilution point 1 of 10 (starting concentration 40 uM)
[3] = 2.5 mM GlcN, M833 dilution point 2 of 10 from 40 uM start
[4] = 2.5 mM GlcN, M833 dilution point 3 of 10 from 40 uM start

Cc1cc(Cl)c(S(=O)(=O)N2CCCC2)cc1OCC(=O)NC1CCCCC1 [M-833]
effect of GlcN addition on EC50 (CR-N330K parasites): did not impact the EC50 | Growth inhibition assay, NORMALISED (CR-N330K parasites; 0 mM GlcN, conc 13333.3 nM): 83.0053 and 71.7328 and 58.9456 | Growth inhibition assay, NORMALISED (CR-N330K parasites; 0 mM GlcN, conc 40000 nM): 89.2357 and 89.8575 | NORMALISED (growth inhibition, LDH absorbance vs DMSO and uRBC) (CR-N330K parasites; [1]): 90.8081 and 87.9797 and 87.1506 | NORMALISED (growth inhibition, LDH absorbance vs DMSO and uRBC) (CR-N330K parasites; [2]): 93.6897 and 84.3760 and 68.7638 | NORMALISED (growth inhibition, LDH absorbance vs DMSO and uRBC) (CR-N330K parasites; [3]): 66.9588 and 63.6686 and 78.5050 | NORMALISED (growth inhibition, LDH absorbance vs DMSO and uRBC) (CR-N330K parasites; [4]): 62.4014 and 35.5339 and 55.9192 | fold resistance compared to CR-WT (CR-N330K parasites; Fig 2D): over 81 fold | inhibition at 40 µM (CR-N330K parasites; 0 mM GlcN, conc 40000 nM): 98.2% | inhibition at 0.00203221 µM (CR-N330K parasites; 0.25 mM GlcN): 1.04% | inhibition at 0.00609663 µM (CR-N330K parasites; 0.25 mM GlcN): 4.9% | inhibition at 0.0182899 µM (CR-N330K parasites; 0.25 mM GlcN): 1.5% | inhibition at 0.0548697 µM (CR-N330K parasites; 0.25 mM GlcN): 3.6% | inhibition at 0.164609 µM (CR-N330K parasites; 0.25 mM GlcN): -2.8% | inhibition at 0.493827 µM (CR-N330K parasites; 0.25 mM GlcN): 5.89% | inhibition at 1.48148 µM (CR-N330K parasites; 0.25 mM GlcN): 18.6% | inhibition at 4.44444 µM (CR-N330K parasites; 0.25 mM GlcN): 54.4% | inhibition at 13.3333 µM (CR-N330K parasites; 0.25 mM GlcN, conc 13333.3 nM): 83.8% | inhibition at 40 µM (CR-N330K parasites; 0.25 mM GlcN, conc 40000 nM): 98.3% | inhibition at 0.00203221 µM (CR-N330K parasites; 2.5 mM GlcN): -48.3% | inhibition at 0.00609663 µM (CR-N330K parasites; 2.5 mM GlcN): -31% | inhibition at 0.0182899 µM (CR-N330K parasites; 2.5 mM GlcN): -30.8% | inhibition at 0.0548697 µM (CR-N330K parasites; 2.5 mM GlcN): -27.3% | inhibition at 0.164609 µM (CR-N330K parasites; 2.5 mM GlcN): -23.4% | inhibition at 0.493827 µM (CR-N330K parasites; 2.5 mM GlcN): -11.7% | inhibition at 1.48148 µM (CR-N330K parasites; 2.5 mM GlcN): 13.1% | inhibition at 4.44444 µM (CR-N330K parasites; 2.5 mM GlcN): 36.6% | inhibition at 13.3333 µM (CR-N330K parasites; 2.5 mM GlcN, conc 13333.3 nM): 32.3% | inhibition at 40 µM (CR-N330K parasites; 2.5 mM GlcN, conc 40000 nM): 94% | EC50 (CR-N330K parasites; 72 h, read-out: EC50 (95% confidence interval), Fig 2D, 72 h, n = 3): 9.51 µM | EC50 (CR-N330K parasites; Fig 3F, 0 mM GlcN, n = 3, read-out: EC50 M-833 (95% confidence interval)): 9.5 µM | EC50 (CR-N330K parasites; read-out: EC50 M-833 (95% confidence interval), Fig 3F, 0.25 mM GlcN, n = 3): 8.92 µM | EC50 (CR-N330K parasites; read-out: EC50 M-833 (95% confidence interval), Fig 3F, 2.5 mM GlcN, n = 3): 8.73 µM | Growth inhibition assay, NORMALISED (CR-N309K parasites; 0 mM GlcN, conc 13333.3 nM): 96.3035 and 81.5013 | Growth inhibition assay, NORMALISED (CR-N309K parasites; 0 mM GlcN, conc 40000 nM): 90.3753 | NORMALISED (growth inhibition, LDH absorbance vs DMSO and uRBC) (CR-N309K parasites; [1]): 109.622 and 93.8958 and 89.0356 | NORMALISED (growth inhibition, LDH absorbance vs DMSO and uRBC) (CR-N309K parasites; 0.25 mM GlcN, M833 dilution point 2 of 10 from 40 uM start): 100.45 and 85.8318 and 85.1660 | NORMALISED (growth inhibition, LDH absorbance vs DMSO and uRBC) (CR-N309K parasites; 0.25 mM GlcN, M833 dilution point 3 of 10 from 40 uM start): 91.9964 and 60.0606 and 52.4793 | NORMALISED (growth inhibition, LDH absorbance vs DMSO and uRBC) (CR-N309K parasites; [2]): 151.073 and 87.1969 and 79.8969 | NORMALISED (growth inhibition, LDH absorbance vs DMSO and uRBC) (CR-N309K parasites; [3]): 113.734 and 82.9449 and 82.5963 | NORMALISED (growth inhibition, LDH absorbance vs DMSO and uRBC) (CR-N309K parasites; [4]): 124.034 and 76.1318 and 75.9272 | fold resistance compared to CR-WT (CR-N309K parasites; Fig 2D): over 81 fold | inhibition at 40 µM (CR-N309K parasites; Plasmodium falciparum, 0 mM GlcN, conc 40000 nM, read-out: Growth inhibition assay, NORMALISED): 107% | EC50 (CR-N309K parasites; Plasmodium falciparum, 72 h, read-out: EC50 (95% confidence interval), Fig 2D, 72 h, n = 3): 4.03 µM | EC50 (CR-N309K parasites; Plasmodium falciparum, Fig 3F, 0 mM GlcN, n = 3, read-out: EC50 M-833 (95% confidence interval)): 4 µM | EC50 (CR-N309K parasites; Plasmodium falciparum, read-out: EC50 M-833 (95% confidence interval), Fig 3F, 0.25 mM GlcN, n = 3): 2.18 µM | EC50 (CR-N309K parasites; Plasmodium falciparum, read-out: EC50 M-833 (95% confidence interval), Fig 3F, 2.5 mM GlcN, n = 3): 0.768 µM | fold reduction of EC50 on addition of 2.5 mM GlcN (CR-N309K parasites; not statistically significant): 5.2 fold
